Test results taken from the supplement of paper PMC10307832.

Columns and labels:
Assay in all cases: relative viability (nuclei count vs DMSO), 5 days (fraction); higher = more cells survive
[1] = compound: C[C@@]1(C(=O)Nc2ccc(F)nc2)CCCN1c1nc(Nc2cc(C3CC3)n[nH]2)c2cccn2n1 + CC(=O)Nc1cccc(-n2c(=O)n(C3CC3)c(=O)c3c(Nc4ccc(I)cc4F)n(C)c(=O)c(C)c32)c1 [Trametinib] (partner 0.02 µM)
Summary of the method: (§1)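 Relative viability equals treated-well nuclei counts divided by vehicle-well nuclei counts. Counts came from 4× images of lung cancer cell lines grown in 1536-well plates for 5 days after pin-tool dosing on the day after seeding. Dosing used one drug alone or a fixed anchor-drug dose plus five library-drug doses (not always all listed) in √10 steps, and values are medians of duplicate plates.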

[2] = compound: C[C@@]1(C(=O)Nc2ccc(F)nc2)CCCN1c1nc(Nc2cc(C3CC3)n[nH]2)c2cccn2n1 + O=C(CCCCCCC(=O)Nc1ccccc1)NO [Vorinostat] (partner 1 µM)
Summary of the method: as §1

Motesanib + Phenformin = compound: CC1(C)CNc2cc(NC(=O)c3cccnc3NCc3ccncc3)ccc21 [Motesanib] + N=C(N)NC(=N)NCCc1ccccc1 [Phenformin] (partner 250 µM)
Summary of the method: as §1

[3] = compound: C[C@@]1(C(=O)Nc2ccc(F)nc2)CCCN1c1nc(Nc2cc(C3CC3)n[nH]2)c2cccn2n1 + CS(=O)(=O)N1CCN(Cc2cc3nc(-c4cccc5[nH]ncc45)nc(N4CCOCC4)c3s2)CC1 [Pictilisib] (partner 1 µM)
Summary of the method: as §1

Row | Cell Line | relative viability ([1]; first compound 0.04 µM) | relative viability ([1]; first compound 0.1265 µM) | relative viability ([1]; first compound 0.4 µM) | relative viability ([1]; first compound 1.265 µM) | relative viability ([2]; first compound 0.04 µM) | relative viability ([2]; first compound 0.1265 µM) | relative viability ([2]; first compound 0.4 µM) | relative viability ([2]; first compound 1.265 µM) | relative viability (Motesanib + Phenformin; first compound 0.01 µM) | relative viability (Motesanib + Phenformin; first compound 0.03162 µM) | relative viability (Motesanib + Phenformin; first compound 0.1 µM) | relative viability (Motesanib + Phenformin; first compound 0.3162 µM) | relative viability (Motesanib + Phenformin; first compound 1 µM) | relative viability ([3]; first compound 0.04 µM) | relative viability ([3]; first compound 0.1265 µM) | relative viability ([3]; first compound 0.4 µM) | relative viability ([3]; first compound 1.265 µM)
1 | 201T | 0.718 | 0.663 | 0.637 | 0.676 | 0.858 | 0.755 | 0.634 | 0.62 | 0.377 | 0.44 | 0.485 | 0.48 | 0.427 | 0.638 | 0.622 | 0.554 | 0.614
2 | A549 |  |  |  |  |  |  |  |  | 0.0998 | 0.109 | 0.165 | 0.178 | 0.247 | 0.283 | 0.292 | 0.172 | 0.148
3 | A-427 | 0.644 | 0.548 | 0.537 | 0.579 | 0.93 | 0.857 | 0.864 | 0.49 | 0.239 | 0.294 | 0.319 | 0.374 | 0.323 | 0.79 | 0.679 | 0.739 | 0.705
4 | ABC-1 |  |  |  |  | 1.23 | 0.819 | 0.708 | 0.409 | 0.238 | 0.229 | 0.223 | 0.229 | 0.242 | 0.598 | 0.6 | 0.467 | 0.394
5 | BEN | 1.07 | 1.01 | 1.04 | 0.979 | 0.537 | 0.492 | 0.467 | 0.439 | 0.257 | 0.259 | 0.229 | 0.253 | 0.272 | 0.614 | 0.573 | 0.606 | 0.614
6 | CAL-12T | 0.333 | 0.214 | 0.351 | 0.253 | 0.574 | 0.567 | 0.461 | 0.33 | 0.562 | 0.487 | 0.61 | 0.627 | 0.534 | 0.41 | 0.395 | 0.463 | 0.304
7 | COR-L23 | 0.59 | 0.542 | 0.441 | 0.269 | 0.345 | 0.323 | 0.115 | 0.109 | 0.468 | 0.456 | 0.494 | 0.531 | 0.43 | 0.518 | 0.463 | 0.31 | 0.335
8 | COR-L 105 | 0.44 | 0.42 | 0.439 | 0.399 | 0.845 | 0.611 | 0.579 | 0.604 | 0.485 | 0.499 | 0.538 | 0.573 | 0.463 | 0.414 | 0.328 | 0.26 | 0.241
9 | Calu-6 |  |  |  |  |  |  |  |  |  |  |  |  |  | 0.965 | 0.833 | 0.695 | 0.425
10 | ChaGo-K-1 | 0.827 | 0.869 | 0.81 | 0.823 | 0.713 | 0.636 | 0.626 | 0.671 | 0.473 | 0.436 | 0.509 | 0.499 | 0.528 | 0.643 | 0.662 | 0.849 | 0.371
11 | EBC-1 |  |  |  |  |  |  |  |  |  |  |  |  |  | 0.32 | 0.231 | 0.241 | 0.162
12 | EKVX | 0.433 | 0.227 | 0.355 | 0.288 | 0.616 | 0.648 | 0.509 | 0.684 | 0.225 | 0.231 | 0.242 | 0.248 | 0.24 | 0.354 | 0.328 | 0.33 | 0.409
13 | EMC-BAC-2 | 0.801 | 0.533 | 0.443 | 0.558 | 0.37 | 0.343 | 0.304 | 0.178 | 0.527 | 0.507 | 0.581 | 0.56 | 0.539 | 0.514 | 0.498 | 0.358 | 0.495
14 | EPLC-272H | 0.266 | 0.252 | 0.234 | 0.231 | 0.578 | 0.234 | 0.336 | 0.406 | 0.253 | 0.333 |  | 0.338 | 0.247 | 0.251 | 0.18 | 0.168 | 0.174
15 | H3255 | 0.543 | 0.573 | 0.494 | 0.628 | 0.852 | 0.816 | 0.815 | 0.829 | 0.357 | 0.367 | 0.364 | 0.394 | 0.35 | 0.49 | 0.423 | 0.415 | 0.371
16 | HARA | 0.66 | 0.331 | 0.483 | 0.618 | 0.364 | 0.233 | 0.31 | 0.433 | 0.479 | 0.433 | 0.435 | 0.431 | 0.359 | 0.366 | 0.208 | 0.215 | 0.294
17 | HCC-15 | 0.237 | 0.204 | 0.19 | 0.264 | 0.689 | 0.51 | 0.555 | 0.774 | 0.416 | 0.376 | 0.497 | 0.527 | 0.503 | 0.715 | 0.573 | 0.747 | 0.745
18 | HCC-44 | 0.879 | 0.871 | 0.717 | 1.02 | 1.08 | 1.02 | 0.887 | 1.08 | 0.129 | 0.174 | 0.252 | 0.309 | 0.209 | 0.532 | 0.386 | 0.841 | 0.328
19 | HCC-78 | 0.637 | 1.19 | 0.334 | 0.327 | 0.33 | 0.491 | 0.245 | 0.327 | 0.605 | 0.73 | 0.715 | 0.822 | 0.707 | 0.204 | 0.148 | 0.172 | 0.189
20 | HCC-366 | 0.4 | 0.197 | 0.194 | 0.178 | 0.395 | 0.315 | 0.2 | 0.0599 | 0.628 | 0.53 | 0.619 | 0.643 | 0.587 | 0.105 | 0.104 | 0.101 | 0.12
21 | HCC-827 | 0.518 | 0.499 | 0.45 | 0.557 | 0.891 | 0.933 | 0.731 | 0.823 | 0.449 | 0.475 | 0.405 | 0.448 | 0.451 | 0.889 | 1.07 | 1.1 | 1
